Biological target: T1, human wild-type (WT)-pendrin (Homo sapiens, UniProt O43511)
T1 construct: expressed in transfected cells
T1 sequence (O43511 1-780): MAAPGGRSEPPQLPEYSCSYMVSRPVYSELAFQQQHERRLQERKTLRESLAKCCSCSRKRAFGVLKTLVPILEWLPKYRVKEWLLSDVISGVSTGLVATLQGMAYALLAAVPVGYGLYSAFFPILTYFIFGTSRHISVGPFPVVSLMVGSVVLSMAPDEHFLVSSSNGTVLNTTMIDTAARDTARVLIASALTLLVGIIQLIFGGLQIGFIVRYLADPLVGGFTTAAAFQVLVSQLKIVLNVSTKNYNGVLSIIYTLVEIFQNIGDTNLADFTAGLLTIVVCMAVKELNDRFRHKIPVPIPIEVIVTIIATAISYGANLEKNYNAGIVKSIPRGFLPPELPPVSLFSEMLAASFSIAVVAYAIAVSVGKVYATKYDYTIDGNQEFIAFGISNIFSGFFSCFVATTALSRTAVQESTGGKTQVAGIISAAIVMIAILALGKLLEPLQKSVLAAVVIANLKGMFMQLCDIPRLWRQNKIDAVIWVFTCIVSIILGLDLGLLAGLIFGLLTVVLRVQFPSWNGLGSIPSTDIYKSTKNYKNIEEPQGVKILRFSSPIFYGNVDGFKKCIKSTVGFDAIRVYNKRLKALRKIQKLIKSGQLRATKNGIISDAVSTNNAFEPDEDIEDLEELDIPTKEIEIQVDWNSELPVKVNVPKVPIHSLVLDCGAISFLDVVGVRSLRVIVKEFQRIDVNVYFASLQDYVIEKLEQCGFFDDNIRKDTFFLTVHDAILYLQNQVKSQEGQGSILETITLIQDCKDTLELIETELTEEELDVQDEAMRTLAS
Assay: Pendrin-mediated Cl^−/I^− exchange activity, YFP fluorescence in CHO-K1 cells
Type: cell-based
Conditions: CHO-K1, 30 μM; read-out: Pendrin inhibitory activity at 30 μM (%)

inhibition at 30 µM [%]	Structure (SMILES)
3.8	O=C1OC(c2ccc(Oc3ccccc3)cc2)=NC1=Cc1cccs1 [F95, 2-(4-Phenoxyphenyl)-4-(thiophen-2-ylmethylene)oxazol-5(4H)-one]
3.4	Cc1ccc(C=C2N=C(c3ccc(C(C)(C)C)cc3)OC2=O)s1 [F96, 2-(4-(tert-butyl)phenyl)-4-((5-methylthiophen-2-yl)methylene)oxazol-5(4H)-one]
2.9	O=C1OC(c2ccc3c(c2)OCO3)=NC1=Cc1cccs1 [F97, 2-(Benzo[d][1,3]dioxoyl-5-yl)-4-(thiophen-2-ylmethylene)oxazol-5(4H)-one]
3.3	O=C1OC(c2ccc(N3CCCC3=O)cc2)=NC1=Cc1cccs1 [F98, 2-(4-(2-oxopyrrolidin-1-yl)phenyl)-4-(thiophen-2-ylmethylene)oxazol-5 (4H)-one]
2.4	COc1ccc(C2=NC(=Cc3ccc(Cl)s3)C(=O)O2)cc1 [F99, 4-((5-Chlorothiophen-2-yl)methylene)-2-(4-methoxyphenyl)oxazol-5(4H)-one]
2.5	O=C1OC(c2ccc3c(c2)OCO3)=NC1=Cc1ccc(N2CCCCC2)s1 [F100, 2-(Benzo[d][1,3]dioxoyl-5-yl)-4-((5-(piperidin-1-yl)thiophen-2-yl)methylene)oxazol-5(4H)-one]
2.7	COc1cc(C2=NC(=Cc3cccs3)C(=O)O2)ccc1OC(F)F [F102, 2-(4-(Difluoromethoxy)-3-methoxyphenyl)-4-(thiophen-2-ylmethylene)oxazol-5 (4H)-one]
3.7	CCc1sc(C2=NC(=Cc3cccs3)C(=O)O2)cc1C [F103, 2-(5-Ethyl-4-methylthiophen-2-yl)-4-(thiophen-2-ylmethylene)oxazol-5(4H)-one]
3.5	COc1cccc(C2=NC(=Cc3cccs3)C(=O)O2)c1 [F104, 2-(3-Methoxyphenyl)-4-(thiophen-2-ylmethylene)oxazol-5(4H)-one]
3.1	CN(C)c1ccc(C=C2N=C(c3ccc4ccccc4c3)OC2=O)s1 [F105, 4-((5-(Dimethylamino)thiophen-2-yl)methylene)-2-(naphthalen-2-yl)oxazol-5(4H)-one]
3.3	CC(=O)Nc1ccc(C2=NC(=Cc3cc(Br)cs3)C(=O)O2)cc1 [F106, N-(4-(4-((4-bromothiophen-2-yl)methylene)-5-oxo-4,5-dihydrooxazol-2-yl)phenyl)acetamide]
2.9	CC(=O)Nc1ccc(C2=NC(=Cc3ccc(Br)s3)C(=O)O2)cc1 [F107, N-(4-(4-((5-bromothiophen-2-yl)methylene)-5-oxo-4,5-dihydrooxazol-2-yl)phenyl)acetamide]
2.3	CC(=O)Nc1ccc(C2=NC(=Cc3ccc(N(C)C)s3)C(=O)O2)cc1 [F108, N-(4-(4-((5-(dimethylamino)thiophen-2-yl)methylene)-5-oxo-4,5-dihydrooxazol-2-yl)phenyl) acetamide]
2.4	O=C1OC(c2ccc(OCc3ccccc3)cc2)=NC1=Cc1cccs1 [F109, 2-(4-(Benzyloxy)phenyl)-4-(thiophen-2-ylmethylene)oxazol-5(4H)-one]
2.9	O=C1OC(/C=C/c2ccccc2)=NC1=Cc1cccs1 [F110, 2-((E)-styryl)-4-(thiophen-2-ylmethylene)oxazol-5 (4H)-one]
30.8	Cc1ccc(C2=NC(=Cc3cccs3)C(=O)O2)s1 [F111, 2-(5-methylthiophen-2-yl)-4-(thiophen-2-ylmethylene)oxazol-5 (4H)-one]
3.1	CCN(CC)S(=O)(=O)c1cccc(C2=NC(=Cc3cccs3)C(=O)O2)c1 [F112, N,N-diethyl-3-(5-oxo-4-(thiophen-2-ylmethylene)-4,5-dihydrooxazol-2-yl)benzene sulfonamide]
3.5	COc1ccccc1C1=NC(=Cc2sc3nc(C)nc(C)c3c2C)C(=O)O1 [F113, 2-(2-Methoxyphenyl)-4-((2,4,5-trimethylthieno[2,3-d]pyrimidin-6-yl)methylene) oxazol-5(4H)-one]
3.9	COc1ccccc1C1=NC(=Cc2ccc(N(C)C)s2)C(=O)O1 [F114, 4-((5-(Dimethylamino)thiophen-2-yl)methylene)-2-(2-methoxyphenyl)oxazol-5(4H)-one]
2.8	Cc1ccc(C=C2N=C(c3cccs3)OC2=O)s1 [F115, 4-((5-Methylthiophen-2-yl)methylene)-2-(thiophen-2-yl)oxazol-5(4H)-one]

inhibition at 30 µM [%]	Structure (SMILES)
2.6	CN(C)S(=O)(=O)c1cccc(C2=NC(=Cc3cccs3)C(=O)O2)c1 [F116, N,N-dimethyl-3-(5-oxo-4-(thiophen-2-ylmethylene)-4,5-dihydrooxazol-2-yl) benzenesulfonamide]
2.3	COc1ccccc1C1=NC(=Cc2ccc(Br)s2)C(=O)O1 [F117, 4-((5-Bromothiophen-2-yl)methylene)-2-(2-methoxyphenyl)oxazol-5(4H)-one]
2.1	O=C1OC(c2cccs2)=NC1=Cc1ccc(Br)s1 [F118, 4-((5-Bromothiophen-2-yl)methylene)-2-(thiophen-2-yl)oxazol-5(4H)-one]
1.7	Cc1ccc(C=C2N=C(c3ccc(C)s3)OC2=O)s1 [F119, 2-(5-methylthiophen-2-yl)-4-((5-methylthiophen-2-yl)methylene)oxazol-5 (4H)-one]
1.9	O=C1OC(c2cccs2)=NC1=Cc1ccc(N2CCCCC2)s1 [F120, 4-((5-(Piperidin-1-yl)thiophen-2-yl)methylene)-2-(thiophen-2-yl)oxazol-5 (4H)-one]
3.4	O=C1OC(c2ccccc2OC(F)F)=NC1=Cc1ccc(Br)s1 [F121, 4-((5-Bromothiophen-2-yl)methylene)-2-(2-(difluoromethoxy)phenyl)oxazol-5(4H)-one]
3.8	CC(C)(C)c1ccc(C2=NC(=Cc3ccccc3OC(F)F)C(=O)O2)cc1 [F122, 2-(4-(tert-butyl)phenyl)-4-(2-(difluoromethoxy)benzylidene)oxazol-5(4H)-one]
2.4	O=C1OC(c2ccc3ccccc3c2)=NC1=Cc1cnn(Cc2ccccc2Cl)c1 [F123, 4-((1-(2-Chlorobenzyl)-1H-pyrazol-4-yl)methylene)-2-(naphthalen-2-yl)oxazol-5 (4H)-one]
2	CC(C)(C)c1ccc(C2=NC(=Cc3cnn(-c4ccccc4)c3)C(=O)O2)cc1 [F124, 2-(4-(tert-butyl)phenyl)-4-((1-phenyl-1H-pyrazol-4-yl)methylene)oxazol-5 (4H)-one]
1	COc1ccccc1C1=NC(=Cc2cnn(C)c2)C(=O)O1 [F125, 2-(2-methoxyphenyl)-4-((1-methyl-1H-pyrazol-4-yl)methylene)oxazol-5(4H)-one]
2.5	Cc1ccc(C=C2N=C(c3ccc(S(=O)(=O)NC(C)(C)C)cc3)OC2=O)o1 [F126, N-(tert-butyl)-4-(4-((5-methylfuran-2-yl)methylene)-5-oxo-4,5-dihydrooxazol-2-yl) benzenesulfonamide]
3.6	CCN(CC)S(=O)(=O)c1ccc(C2=N/C(=C3\C=CC=CN3C)C(=O)O2)cc1 [F127, N,N-diethyl-4-(4-(1-methylpyridin-2(1H)-ylidene)-5-oxo-4,5-dihydrooxazol-2-yl)benzenesulfonamide]
1.9	COc1ccccc1C1=NC(=Cc2ccc(OCC(N)=O)cc2)C(=O)O1 [F128, 2-(4-((2-(2-methoxyphenyl)-5-oxooxazol-4(5H)-ylidene)methyl)phenoxy)acetamide]
2.3	CC(=O)Nc1ccc(C=C2N=C(c3ccc(OC(C)C)cc3)OC2=O)cc1 [F129, N-(4-((2-(4-isopropoxyphenyl)-5-oxooxazol-4(5H)-ylidene)methyl)phenyl)acetamide]
2.7	CC(C)Oc1ccc(C2=NC(=Cc3cnn(Cc4ccccc4)c3)C(=O)O2)cc1 [F130, 4-((1-Benzyl-1H-pyrazol-4-yl)methylene)-2-(4-isopropoxyphenyl)oxazol-5 (4H)-one]
2.1	CCN(CC)S(=O)(=O)c1cccc(C2=NC(=Cc3cnn(C)c3)C(=O)O2)c1 [F131, N,N-diethyl-3-(4-((1-methyl-1H-pyrazol-4-yl)methylene)-5-oxo-4,5-dihydrooxazol-2-yl)benzenesulfonamide]
3.9	O=C1OC(c2ccccc2I)=NC1=Cc1ccc(-n2cncn2)cc1 [F132, 4-(4-(1H-1,2,4-thiazol-1-yl)benzylidene)-2-(2-iodophenyl)oxazol-5(4H)-one]
4.1	COc1cc(C=C2N=C(c3ccccc3OC)OC2=O)ccc1OCc1c(C)noc1C [F133, 4-(4-((3,5-Dimethylisoxazol-4-yl)methoxy)-3-methoxybenzylidene)-2-(2-methoxyphenyl)oxazol-5 (4H)-one]
3.4	CC(=O)Nc1ccc(C2=NC(=Cc3ccc(-n4cncn4)cc3)C(=O)O2)cc1 [F134, N-(4-(4-(4-(1H-1,2,4-thiazol-1-yl)benzylidene)-5-oxo-4,5-dihydrooxazol-2-yl)phenyl)acetamide]
